For one compound, Activity results are on record in ChEMBL document CHEMBL1149020, “Sesterterpenes from a common marine sponge, Hyrtios erecta” (1986).

The species named for this experiment is Mus musculus. The experiment is described as follows: Antiinflammatory activity against PMA-induced ear inflammation in mouse assessed as decrease in ear weight at 50 ug/ear. Further details: scale not given: the % may be the effect or the level left. Type of experiment: functional.

In the case of `CC(=O)O[C@@H]1C[C@H]2[C@@](C)(CC[C@H]3C(C)(C)CCC[C@]23C)[C@@H]2CC=C(C=O)C[C@]21C` [HYRTIAL], the Activity was 43%.
